“Also recorded” adds a separate entry of the source. Like-named read-outs stand apart in the source and are kept apart here.
Key:
[1] = tested on: HBV; test: microbe, parasite or virus in culture; assay type: cell-based, hepatitis B virus genotype D; settings: for Emax: read-out: %Imax; for %Imax, p2 infection: percent maximum inhibition; for p2 cells still infected at high inhibitor concentrations: high concentrations of late-phase reference inhibitors
[2] = tested on: HBV; test: microbe, parasite or virus in culture; assay type: cell-based, hepatitis B virus genotype D; settings: for %Imax, p1 infection: percent maximum inhibition; for effect on p1 cell infection (phenotype): reference inhibitors, assay validation
[3] = tested on: HBV; settings: read-out: Published EC50, cited from earlier work
[4] = target: T1, NTCP (Homo sapiens, UniProt Q14973); test: Binding assay of Alexa633-labelled HBV preS1 peptide; settings: for effect on preS1 peptide binding to NTCP: cytochalasin D tested up to 50 μM
T1 sequence (Q14973 1-349): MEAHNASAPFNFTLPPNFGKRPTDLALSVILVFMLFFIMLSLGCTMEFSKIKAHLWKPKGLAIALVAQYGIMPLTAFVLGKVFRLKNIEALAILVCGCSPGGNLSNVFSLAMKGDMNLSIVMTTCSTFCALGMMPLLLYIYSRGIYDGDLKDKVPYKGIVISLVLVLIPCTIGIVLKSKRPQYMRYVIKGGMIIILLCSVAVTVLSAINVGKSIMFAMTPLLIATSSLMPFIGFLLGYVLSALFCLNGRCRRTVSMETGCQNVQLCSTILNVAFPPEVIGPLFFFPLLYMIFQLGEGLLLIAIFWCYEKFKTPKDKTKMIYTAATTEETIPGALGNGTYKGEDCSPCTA

[5] = tested on: HBV preS1 peptide internalisation; test: Live-cell imaging of Alexa633-labelled preS1 peptide internalisation; assay type: cell-based; settings: after transfer to 37°C, confocal live-cell imaging
[6] = tested on: SARS-CoV-2; assay type: cell-based
[7] = tested on: HIV-1; assay type: cell-based, HIV-1 strain LAI; settings: Fig. S3
[8] = tested on: HBV; test: Time-of-addition experiments, HBV infection; assay type: cell-based, hepatitis B virus; settings: pretreatment/cotreatment vs post-inoculation 1-7 dpi
[9] = tested on: SARS-CoV-2; settings: virus-free, live-cell assay; cited from earlier work
[10] = tested on: HepG2-NTCPsec+ cells; test: Cell viability by automated nuclei counting; assay type: cell-based, human; settings: hit confirmation DRC, 10-point serial dilutions starting at 25 μM
[11] = tested on: HBV; test: Stably HBV replicating HepAD38 cells, supernatant HBV DNA by quantitative PCR; assay type: cell-based, hepatitis B virus; settings: supernatant qPCR at 7 days post-treatment
[12] = tested on: HCV; assay type: cell-based
[13] = tested on: HBV and HDV; settings: cited from earlier work
[14] = target: T1, NTCP; settings: transiently NTCP-transfected U2OS cells; cited from earlier work
[15] = read-out: EC50, p1 infection, p1 cells, DRC of reference inhibitors
[16] = Hepatitis B virus, read-out: EC50 (μM), early HBV life cycle inhibitors

Molecule `O=C(O)P(=O)(O)O` [Foscarnet] has an Emax ([1]; Hepatitis B virus) of 94.2%.
Work on `CCC(C)(C)C(=O)O[C@H]1C[C@@H](C)C=C2C=C[C@H](C)[C@H](CC[C@@H]3C[C@@H](O)CC(=O)O3)[C@H]21` [Simvastatin] yielded an Emax ([1]; Hepatitis B virus) of 99.9%.
In the case of `COC(=O)C1=C(C)NC(c2ncc(F)cc2F)=N[C@H]1c1ccc(F)cc1Cl` [Bay41-4109], the “%Imax, p1 infection” value ([2]; p1 cells) is reported as 99%, the EC50 [2, 15] is reported as 1.3 µM and the “%Imax, p2 infection” value ([1]; p2 cells) is reported as 99%.
With `Nc1ccn([C@@H]2CS[C@H](CO)O2)c(=O)n1` [LMV, lamivudine] the EC50 ([2]; Hepatitis B virus, read-out: EC50, p1 infection) was greater than 10 µM, the EC50 ([1]; Hepatitis B virus, read-out: EC50 (μM), late HBV life cycle inhibitors, infectious HBV genotype D, p2 cells) was 0.02 µM and the “p2 cells still infected at high inhibitor concentrations” value [1] was 2–5%. The “Imax (%), late HBV life cycle inhibitors” value ([1]; p2 cells) was 98%.
For IFNα, the “antiviral effect on early HBV life cycle steps” value ([2]; p1 cells treated over several weeks, Fig. S5A) was “no or only insignificant antiviral effects” and the “antiviral effect on late HBV life cycle steps” value [1] was “no or only insignificant antiviral effects”.
Work on `CC[C@]1(O)C[C@H]2CN(CCc3c([nH]c4ccccc34)[C@@](C(=O)OC)(c3cc4c(cc3OC)N(C=O)[C@H]3[C@@](O)(C(=O)OC)[C@H](OC(C)=O)[C@]5(CC)C=CCN6CC[C@]43[C@@H]65)C2)C1` [Vincristine] yielded an Emax ([1]; Hepatitis B virus) of 96.9%.
For `CCOC(=O)C1=C(CN2CCOCC2)NC(c2nccs2)=NC1c1ccc(F)cc1Br` (stereo not drawn) [GLS4], the “HBcAg phenotype under CpAM treatment” value ([2]; class II core protein allosteric modifiers, Fig. S4) was “aggregated HBcAg phenotype”.
For `O=C1Cc2ccccc2C(=O)N1O` [HID, N-hydroxyisoquinolinedione], the EC50 [2, 15] was greater than 50 µM, the “effect on p1 cell infection (phenotype)” value [2] was “did not affect the infection status of p1 cells” and the “effect on p2 cell infection / infectivity of HBV progeny” value ([1]; after supernatant transfer) was “reduced number of infected p2 cells”. For the same molecule, the “p2 cells still infected at high inhibitor concentrations” value [1] was 2–5%, the “%Imax, p2 infection” value ([1]; p2 cells) was 99% and the EC50 ([3]; System HepDES19, ref PMID 24858512) was 4.2 µM.
With `C=C1[C@@H](C)[C@H]2[C@H](Cc3ccccc3)NC(=O)[C@]23[C@H](OC(C)=O)/C=C/[C@@](C)(O)C(=O)[C@@H](C)C/C=C/[C@H]3[C@@H]1O` [Cytochalasin D, cytochalasin D] the EC50 [2, 16] was 0.07 µM, the “Imax (%), early HBV life cycle inhibitors” value ([2]; p1 cells) was 86% and the “effect on preS1 peptide binding to NTCP” value [4] was “did not prevent the binding”. For the same molecule, the “effect on preS1 peptide binding to NTCP” value ([4]; listed as cytochalasin D) was “did not interfere with receptor–virus binding”, the “effect on internalisation of HBV preS1 peptide” value [5] was “prevented the internalisation of HBV; also recorded: partially reduced; also recorded: partial retention of the peptide at the plasma membrane” and the “effect on SARS-CoV-2 infection” value ([6]; Fig. S3) was “minor activity in both virus systems; also recorded: inhibits SARS-CoV-2 infection”. For the same molecule, the “effect on HIV-1 infection” value [7] was “minor activity in both virus systems”, the “anti-HBV activity in time-of-addition experiments” value [8] was “exhibited anti-HBV activity exclusively under the pretreatment/cotreatment conditions” and the “effect on SARS-CoV-2 cell entry” value [9] was “prevent SARS-CoV-2 cell entry”.
With `O=C(CN(c1cc(C(F)(F)F)ccc1Cl)S(=O)(=O)c1ccccc1)NCc1ccncc1` [CCC-0975] the “%Imax, p1 infection” value ([2]; p1 cells) was 60%, the EC50 [2, 15] was roughly 5 µM and the “effect on p1 cell infection (phenotype)” value [2] was “inhibited HBV infection in p1 and p2 cells”. For the same molecule, the “effect on p2 cell infection / infectivity of HBV progeny” value ([1]; after supernatant transfer) was “inhibited HBV infection in p1 and p2 cells”, the EC50 ([1]; read-out: EC50, p2 infection (after supernatant transfer), p2 cells) was roughly 8 µM and the EC50 ([3]; System HepDE19, ref PMID 22644022) was 10 µM.
With `Cc1nc2ccc(CN(C)c3ccc(C(=O)N[C@@H](CCC(=O)O)C(=O)O)s3)cc2c(=O)[nH]1` [Raltitrexed] the Emax ([1]; Hepatitis B virus) was 93.7%.
Work on `COC(=O)Nc1nc2ccc(C(=O)c3cccs3)cc2[nH]1` [Nocodazole] yielded an Emax ([1]; Hepatitis B virus) of 91.8%.
`Nc1ncn([C@H]2C[C@H](O)[C@@H](CO)O2)c(=O)n1` [Decitabine] gave an Emax ([1]; Hepatitis B virus) of 91.9%.
In the case of `CN1c2cc3c(cc2N=C(c2ccc(C(=O)O)cc2)c2ccccc21)C(C)(C)CCC3(C)C` [LE 135], the “%Imax” value ([2]; p1 inhibitor, hit confirmation DRC) is reported as 94.5%, the EC50 ([2]; p1 inhibitor, hit confirmation DRC, 10-point serial dilutions starting at 25 μM) is reported as 11.7 µM and the CC50 [10] is reported as greater than 25 µM.
For `Cc1cccc([C@H](C)c2cnc[nH]2)c1C` [Dexmedetomidine, dexmedetomidine], the “Imax (%), late HBV life cycle inhibitors” value [1] was 82%, the “effect on p2 cell infection / infectivity of HBV progeny” value [1] was “interfered with the infectivity of HBV progeny; also recorded: mitigated the infectivity of secreted progeny HBV particles; also recorded: strongly suppresses the infectivity of secreted progeny HBV particles” and the EC50 ([1]; Hepatitis B virus, read-out: EC50 (μM), late HBV life cycle inhibitors) was 6.2 µM. For the same molecule, the EC50 ([1]; read-out: EC50 (μM), late HBV life cycle inhibitors) was 6.23 µM, the “effect on HBV replication / HBV DNA secretion in HepAD38 cells” value [11] was “without reducing HBV replication or genome secretion; also recorded: did not inhibit HBV DNA replication” and the “effect on HCV replication and secretion” value [12] was “no inhibition was observed; also recorded: do not interfere in the production and spread”. The “effect on SARS-CoV-2 infection” value [6] was “no inhibition was observed; also recorded: do not interfere in the production and spread”.
In the case of `CC(C)(C)c1cc(C(=O)/C=C/c2ccc(C(=O)O)cc2)cc(C(C)(C)C)c1` [Ch 55], the “%Imax” value ([1]; p2 inhibitor, hit confirmation DRC) is reported as 99.9%, the EC50 ([1]; p2 inhibitor, hit confirmation DRC, 10-point serial dilutions starting at 25 μM) is reported as 3.21 µM and the CC50 [10] is reported as greater than 25 µM.
With `CC(C)OC(=O)[C@H](C)N[P@](=O)(CO[C@H](C)Cn1cnc2c(N)ncnc21)Oc1ccccc1` [GS-7340] the EC50 ([1]; Hepatitis B virus) was less than 0.05 µM and the Emax ([1]; Hepatitis B virus) was 99.4%.
For `COc1cc(C(=O)NS(=O)(=O)c2ccccc2C)ccc1Cc1cn(C)c2ccc(NC(=O)OC3CCCC3)cc12` [zafirlukast], the “concentration significantly inhibiting HBV and HDV infection” value [13] is listed as 6 µM.
For `O=C(Nc1cccc2c(=O)cc(-c3nnn[nH]3)oc12)c1ccc(OCCCCc2ccccc2)cc1` [Pranlukast, pranlukast], the EC50 [2, 16] was 4.3 µM, the “Imax (%), early HBV life cycle inhibitors” value ([2]; p1 cells) was 92% and the EC50 [4] was 7.6 µM. For the same molecule, the “effect on preS1 peptide binding to NTCP” value [4] was “inhibited HBV preS1 binding”, the “effect on preS1 peptide binding to NTCP” value ([4]; listed as pranlukast) was “blocked the binding” and the “effect on SARS-CoV-2 infection” value ([6]; Fig. S3) was “only inhibited HIV-1; also recorded: but not pranlukast”. The “effect on HIV-1 infection” value [7] was “only inhibited HIV-1”, the “anti-HBV activity in time-of-addition experiments” value [8] was “exhibited anti-HBV activity exclusively under the pretreatment/cotreatment conditions” and the “effect on NTCP bile acid transporter function” value [14] was “inhibits the bile acid transporter function”.
For `O=c1[nH]c(=O)n([C@H]2C[C@H](O)[C@@H](CO)O2)cc1F` [Floxuridine], the Emax ([1]; Hepatitis B virus) was 97.6%.
With `C#CCC(Cc1cnc2nc(N)nc(N)c2n1)c1ccc(C(=O)N[C@@H](CCC(=O)O)C(=O)O)cc1` (stereo partly drawn) [Pralatrexate] the Emax ([1]; Hepatitis B virus) was 102%.
Work on `Cc1c(C(=O)NN2CCCCC2)nn(-c2ccc(Cl)cc2Cl)c1-c1ccc(Cl)cc1` [Rimonabant] yielded an Emax ([1]; Hepatitis B virus) of 99.4%.
`C=C1[C@H](CO)[C@@H](O)C[C@@H]1n1cnc2c(=O)[nH]c(N)nc21` [Entecavir] showed an Emax ([1]; Hepatitis B virus) of 96.7%.
For `CC(C)OC(=O)OCOP(=O)(CO[C@H](C)Cn1cnc2c(N)ncnc21)OCOC(=O)OC(C)C.O=C(O)/C=C/C(=O)O` [TDF, tenofovir disoproxil fumarate], the EC50 [2, 15] was greater than 50 µM, the “effect on p1 cell infection (phenotype)” value [2] was “did not affect the infection status of p1 cells” and the “effect on p2 cell infection / infectivity of HBV progeny” value ([1]; after supernatant transfer) was “reduced number of infected p2 cells”. The “p2 cells still infected at high inhibitor concentrations” value [1] was 2–5%.
For `CC[C@@H]([C@H](C)O)n1ncn(-c2ccc(N3CCN(c4ccc(OC[C@@H]5CO[C@@](Cn6cncn6)(c6ccc(F)cc6F)C5)cc4)CC3)cc2)c1=O` [Posaconazole], the Emax ([1]; Hepatitis B virus) was 96.4%.
`CC[C@H](C)C(=O)O[C@H]1CCC=C2C=C[C@H](C)[C@H](CC[C@@H]3C[C@@H](O)CC(=O)O3)[C@H]21` [Mevastatin] gave an Emax ([1]; Hepatitis B virus) of 101%.
